Holding throughout (assay type): cell-based
The test system of one assay is Mino cells. The assay is described as follows: Antiproliferative effect, MTS cell viability assay, Mino cells. Conditions: Homo sapiens, MINO, Mino mantle cell lymphoma cells; read-out: IC50 (anti-proliferation) Mino cells. Put shortly: (§1)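 Steps: seed B-cell lymphoma line; add compound at 0, 0.001, 0.01, 0.1, 1 or 10 μM; incubate 72 h; add MTS and read reduced tetrazolium (formazan) absorbance at 490 nm.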
In general terms: Formazan colour is commonly taken as a measure of viable cells.

Another assay concerns the target BTK (Homo sapiens, UniProt Q06187). In words: BTK degradation, DC50 and Dmax of Table 1 (cell line not given). More on the design: endogenous in cells. To be noted: for DC50: concentration giving 50% reduction of BTK expression level.
A further assay deals with JeKo-1 cells. The assay is described as follows: Antiproliferative effect, MTS cell viability assay, JeKo-1 cells. Conditions: Homo sapiens; JeKo-1 mantle cell lymphoma cells; read-out: IC50 (anti-proliferation) JeKO-1 cells. Put shortly:
as §1

Sequence of BTK (Q06187 whole entry): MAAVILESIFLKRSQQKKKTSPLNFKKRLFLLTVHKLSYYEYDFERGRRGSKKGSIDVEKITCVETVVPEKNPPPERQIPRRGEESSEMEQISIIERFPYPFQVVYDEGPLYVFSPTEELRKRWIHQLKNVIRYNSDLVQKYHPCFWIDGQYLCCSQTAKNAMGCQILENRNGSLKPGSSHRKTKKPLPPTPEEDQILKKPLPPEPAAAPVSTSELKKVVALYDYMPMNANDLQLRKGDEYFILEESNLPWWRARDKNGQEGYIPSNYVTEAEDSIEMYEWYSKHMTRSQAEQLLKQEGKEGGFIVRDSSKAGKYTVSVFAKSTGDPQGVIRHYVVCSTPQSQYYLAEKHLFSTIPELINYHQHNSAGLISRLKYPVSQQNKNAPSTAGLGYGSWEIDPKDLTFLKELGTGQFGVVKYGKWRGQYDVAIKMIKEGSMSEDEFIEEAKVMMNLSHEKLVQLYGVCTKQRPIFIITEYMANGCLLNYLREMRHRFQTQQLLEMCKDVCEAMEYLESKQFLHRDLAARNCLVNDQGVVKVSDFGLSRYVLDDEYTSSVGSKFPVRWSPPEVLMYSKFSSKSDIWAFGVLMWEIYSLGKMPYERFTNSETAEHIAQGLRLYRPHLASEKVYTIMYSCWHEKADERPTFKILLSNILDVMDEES

Usually Dmax stands for the greatest extent of degradation seen. A lower Dmax goes with a partial loss of target. As usually defined, the DC50 is the concentration at which degradation of the target reaches its halfway point. Read a low DC50 as degradation at low concentration. As for `Nc1ncnc2c1c(-c1ccc(Oc3ccccc3)cc1)nn2C1CCN(C(=O)N2CCN(CCC3CCN(c4ccc5c(c4)C(=O)N(C4CCC(=O)NC4=O)C5=O)CC3)CC2)CC1` (stereo not shown) [Compound 97, 5-(4-(2-(4-(4-(4-amino-3-(4-phenoxyphenyl)-1H-pyrazolo[3,4-d]pyrimidin-1-yl)piperidine-1-carbonyl)piperazin-1-yl)ethyl)piperidin-1-yl)-2-(2,6-dioxopiperidin-3-yl)isoindoline-1,3-dione], the IC50 in the assay with Mino cells was in the range of 1 to 10 µM. For the same compound, on BTK, the Dmax is > 90% and the 50% degradation concentration (DC50) was in the range of 10 to 50 nM. Moreover, in the assay with JeKo-1 cells, the IC50 lay in the range of 1 to 10 µM.

With `Nc1ncnc2c1c(-c1ccc(Oc3ccccc3)cc1)nn2C1CCCN(CCOCCC2CCN(c3ccc4c(c3)C(=O)N(C3CCC(=O)NC3=O)C4=O)CC2)C1` (stereo not shown) [Compound 23, 5-(4-(2-(2-(3-(4-amino-3-(4-phenoxyphenyl)-1H-pyrazolo[3,4-d]pyrimidin-1-yl)piperidin-1-yl)ethoxy)ethyl)piperidin-1-yl)-2-(2,6-dioxopiperidin-3-yl)isoindoline-1,3-dione], the IC50 in the assay on Mino cells and in the assay with JeKo-1 cells was 1 to 10 µM each time. Also, the Dmax at BTK was > 75%. In addition, at BTK, the 50% degradation concentration (DC50) was > 50 nM.

As to `Nc1ncnc2c1c(-c1ccc(Oc3ccccc3)cc1)nn2[C@@H]1CCCN(C2CCN(CC3CCN(c4ccc5c(c4)C(=O)N(C4CCC(=O)NC4=O)C5=O)CC3)CC2)C1` (stereo partly drawn) [Compound 143, 5-(4-(((R)-3-(4-amino-3-(4-phenoxyphenyl)-1H-pyrazolo[3,4-d]pyrimidin-1-yl)-[1,4′-bipiperidin]-1′-yl)methyl)piperidin-1-yl)-2-(2,6-dioxopiperidin-3-yl)isoindoline-1,3-dione], the IC50 in the assay on Mino cells is > 10 µM. Further, at BTK, the Dmax was > 90% and the half-maximal degradation concentration (DC50) lay in the range of 10 to 50 nM. For the same compound, the IC50 in the assay on JeKo-1 cells was > 10 µM.

Turning to `Nc1ncnc2c1c(-c1ccc(Oc3ccccc3)cc1)nn2[C@@H]1CCCN(C(=O)N2CCC(CCN3CCC(c4ccc5c(c4)CN(C4CCC(=O)NC4=O)C5=O)CC3)CC2)C1` (stereo partly drawn) [Compound 74, 3-(5-(1-(2-(1-((R)-3-(4-amino-3-(4-phenoxyphenyl)-1H-pyrazolo[3,4-d]pyrimidin-1-yl)piperidine-1-carbonyl)piperidin-4-yl)ethyl)piperidin-4-yl)-1-oxoisoindolin-2-yl)piperidine-2,6-dione], in the assay with Mino cells, the IC50 is > 10 µM. At BTK, the maximal degradation (Dmax) is > 90% and the 50% degradation concentration (DC50) was in the range of 10 to 50 nM. The IC50 in the assay on JeKo-1 cells is > 10 µM.

Take `Nc1ncnc2c1c(-c1ccc(Oc3ccccc3)cc1)nn2[C@@H]1CCCN(C2CCN(C(=O)N3CCC(C4CCN(c5ccc6c(c5)CN(C5CCC(=O)NC5=O)C6=O)CC4)CC3)CC2)C1` (stereo partly drawn) [Compound 164, 3-(5-(1′-((R)-3-(4-amino-3-(4-phenoxyphenyl)-1H-pyrazolo[3,4-d]pyrimidin-1-yl)-[1,4′-bipiperidine]-1′-carbonyl)-[4,4′-bipiperidin]-1-yl)-1-oxoisoindolin-2-yl)piperidine-2,6-dione]: the IC50 in the assay with Mino cells was in the range of 1 to 10 µM. Also, at BTK, the Dmax was > 75% and the half-maximal degradation concentration (DC50) was 10 to 50 nM. Besides, the IC50 in the assay with JeKo-1 cells was > 10 µM.

In the case of `Nc1ncnc2c1c(-c1ccc(Oc3ccccc3)cc1)nn2[C@@H]1CCCN(CC2CCN(CCN3CCC(c4ccc5c(c4)C(=O)N(C4CCC(=O)NC4=O)C5=O)CC3)CC2)C1` (stereo partly drawn) [Compound 135, 5-(1-(2-(4-(((R)-3-(4-amino-3-(4-phenoxyphenyl)-1H-pyrazolo[3,4-d]pyrimidin-1-yl)piperidin-1-yl)methyl)piperidin-1-yl)ethyl)piperidin-4-yl)-2-(2,6-dioxopiperidin-3-yl)isoindoline-1,3-dione], the IC50 with Mino cells was < 1 µM. Also, at BTK, the greatest degradation seen (Dmax) is > 90% and the DC50 is < 10 nM. Further, the IC50 with JeKo-1 cells is 1 to 10 µM.

Consider `Nc1ncnc2c1c(-c1ccc(Oc3ccccc3)cc1)nn2C1CCCN(CCOCCOCCN2CCC(c3ccc4c(c3)C(=O)N(C3CCC(=O)NC3=O)C4=O)CC2)C1` (stereo not shown) [Compound 13, 5-(1-(2-(2-(2-(3-(4-amino-3-(4-phenoxyphenyl)-1H-pyrazolo[3,4-d]pyrimidin-1-yl)piperidin-1-yl)ethoxy)ethoxy)ethyl)piperidin-4-yl)-2-(2,6-dioxopiperidin-3-yl)isoindoline-1,3-dione], for which the IC50 in the assay on Mino cells lay within 1 to 10 µM. At BTK, the Dmax is > 75% and the DC50 is 10 to 50 nM. Further, in the assay with JeKo-1 cells, the IC50 is 1 to 10 µM.

In the case of `Nc1ncnc2c1c(-c1ccc(Oc3ccccc3)cc1)nn2C1CCN(C(=O)N2CCN(CCN3CCN(c4ccc5c(c4)CN(C4CCC(=O)NC4=O)C5=O)CC3)CC2)CC1` (stereo not shown) [Compound 96, 3-(5-(4-(2-(4-(4-(4-amino-3-(4-phenoxyphenyl)-1H-pyrazolo[3,4-d]pyrimidin-1-yl)piperidine-1-carbonyl)piperazin-1-yl)ethyl)piperazin-1-yl)-1-oxoisoindolin-2-yl)piperidine-2,6-dione], the IC50 with Mino cells is 1 to 10 µM. In addition, at BTK, the Dmax is > 90% and the half-maximal degradation concentration (DC50) is 10 to 50 nM. Also, the IC50 in the assay with JeKo-1 cells fell in the range of 1 to 10 µM.

`Nc1ncnc2c1c(-c1ccc(Oc3ccccc3)cc1)nn2[C@@H]1CCCN(C(=O)N2CCN(CCN3CCN(c4ccc5c(c4)CN(C4CCC(=O)NC4=O)C5=O)CC3)CC2)C1` (stereo partly drawn) [Compound 66, 3-(5-(4-(2-(4-((R)-3-(4-amino-3-(4-phenoxyphenyl)-1H-pyrazolo[3,4-d]pyrimidin-1-yl)piperidine-1-carbonyl)piperazin-1-yl)ethyl)piperazin-1-yl)-1-oxoisoindolin-2-yl)piperidine-2,6-dione]: the IC50 in the assay on Mino cells is 1 to 10 µM; in the assay on JeKo-1 cells it was < 1 µM. Besides, the greatest degradation seen (Dmax) on BTK was > 90%. In addition, the 50% degradation concentration (DC50) on BTK is < 10 nM.

Turning to `Nc1ncnc2c1c(-c1ccc(Oc3ccccc3)cc1)nn2[C@@H]1CCCN(CC2CCN(CCC3CCN(c4ccc5c(c4)C(=O)N(C4CCC(=O)NC4=O)C5=O)CC3)CC2)C1` (stereo partly shown) [Compound 131], in the assay on Mino cells, the IC50 lay within 1 to 10 µM. Besides, at BTK, the Dmax is > 75% and the half-maximal degradation concentration (DC50) fell in the range of 10 to 50 nM. In addition, the IC50 in the assay on JeKo-1 cells is 1 to 10 µM.

Consider `Nc1ncnc2c1c(-c1ccc(Oc3ccccc3)cc1)nn2[C@@H]1CCCN(C2CCN(CCN3CCN(c4ccc5c(c4)C(=O)N(C4CCC(=O)NC4=O)C5=O)CC3)CC2)C1` (stereo partly drawn) [Compound 147, 5-(4-(2-((R)-3-(4-amino-3-(4-phenoxyphenyl)-1H-pyrazolo[3,4-d]pyrimidin-1-yl)-[1,4′-bipiperidin]-1′-yl)ethyl)piperazin-1-yl)-2-(2,6-dioxopiperidin-3-yl)isoindoline-1,3-dione], for which the IC50 in the assay on Mino cells was > 10 µM. Further, on BTK, the Dmax is > 75% and the DC50 was in the range of 10 to 50 nM. The IC50 in the assay with JeKo-1 cells is > 10 µM.

With `Nc1ncnc2c1c(-c1ccc(Oc3ccccc3)cc1)nn2[C@@H]1CCCN(C2CCN(CCC3CCN(c4ccc5c(c4)CN(C4CCC(=O)NC4=O)C5=O)CC3)CC2)C1` (stereo partly drawn) [Compound 146, 3-(5-(4-(2-((R)-3-(4-amino-3-(4-phenoxyphenyl)-1H-pyrazolo[3,4-d]pyrimidin-1-yl)-[1,4′-bipiperidin]-1′-yl)ethyl)piperidin-1-yl)-1-oxoisoindolin-2-yl)piperidine-2,6-dione], in the assay on Mino cells, the IC50 is 1 to 10 µM. In addition, on BTK, the Dmax is > 75% and the half-maximal degradation concentration (DC50) was > 50 nM. In addition, in the assay with JeKo-1 cells, the IC50 was > 10 µM.

`Nc1ncnc2c1c(-c1ccc(Oc3ccccc3)cc1)nn2C1CCN(CCOCCN2CCN(c3ccc4c(c3)C(=O)N(C3CCC(=O)NC3=O)C4=O)CC2)CC1` (stereo not shown) [Compound 5, 5-(4-(2-(2-(4-(4-amino-3-(4-phenoxyphenyl)-1H-pyrazolo[3,4-d]pyrimidin-1-yl)piperidin-1-yl)ethoxy)ethyl)piperazin-1-yl)-2-(2,6-dioxopiperidin-3-yl)isoindoline-1,3-dione]: the IC50 in the assay with Mino cells and with JeKo-1 cells was 1 to 10 µM in each case. For the same compound, at BTK, the greatest degradation seen (Dmax) is > 90%. The compound also registered a DC50 at BTK of 10 to 50 nM.

For `Nc1ncnc2c1c(-c1ccc(Oc3ccccc3)cc1)nn2C1CCN(C(=O)N2CCN(CC3CCN(c4ccc5c(c4)CN(C4CCC(=O)NC4=O)C5=O)CC3)CC2)CC1` (stereo not shown) [Compound 88, 3-(5-(4-((4-(4-(4-amino-3-(4-phenoxyphenyl)-1H-pyrazolo[3,4-d]pyrimidin-1-yl)piperidine-1-carbonyl)piperazin-1-yl)methyl)piperidin-1-yl)-1-oxoisoindolin-2-yl)piperidine-2,6-dione], the IC50 in the assay with Mino cells and in the assay on JeKo-1 cells was < 1 µM each time. For the same compound, the greatest degradation seen (Dmax) at BTK was > 90%. The half-maximal degradation concentration (DC50) on BTK is 10 to 50 nM.

Consider `Nc1ncnc2c1c(-c1ccc(Oc3ccccc3)cc1)nn2C1CCN(CCOCCC2CCN(c3ccc4c(c3)CN(C3CCC(=O)NC3=O)C4=O)CC2)CC1` (stereo not shown) [Compound 20, 3-(5-(4-(2-(2-(4-(4-amino-3-(4-phenoxyphenyl)-1H-pyrazolo[3,4-d]pyrimidin-1-yl)piperidin-1-yl)ethoxy)ethyl)piperidin-1-yl)-1-oxoisoindolin-2-yl)piperidine-2,6-dione], for which the IC50 in the assay on Mino cells is 1 to 10 µM. Further, at BTK, the greatest degradation seen (Dmax) was > 90% and the DC50 is 10 to 50 nM. In the assay on JeKo-1 cells, the IC50 is 1 to 10 µM.

In the case of `Nc1ncnc2c1c(-c1ccc(Oc3ccccc3)cc1)nn2C1CCN(C(=O)N2CCC(CCCC3CCN(c4ccc5c(c4)C(=O)N(C4CCC(=O)NC4=O)C5=O)CC3)CC2)CC1` (stereo not shown) [Compound 125, 5-(4-(3-(1-(4-(4-amino-3-(4-phenoxyphenyl)-1H-pyrazolo[3,4-d]pyrimidin-1-yl)piperidine-1-carbonyl)piperidin-4-yl)propyl)piperidin-1-yl)-2-(2,6-dioxopiperidin-3-yl)isoindoline-1,3-dione], the IC50 with Mino cells is > 10 µM. Further, at BTK, the Dmax is > 90% and the DC50 is > 50 nM. In addition, the IC50 in the assay with JeKo-1 cells was 1 to 10 µM.

For the origin of these results see US12139492B2 (Endotarget Inc., priority 2021, dated 2024).
